Experimental data taken from the supplement of paper PMC11061612.

Key:
Assay in all cases: combination Emax (second highest fraction inhibited in the dose matrix, 72 h); higher = more inhibition; extreme values may be limits of the assay
786-0 (Kidney Carcinoma) = test system: 786-0 (Kidney Carcinoma)
How it was run: (§1)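 Cell lines in DMEM/F12 or RPMI with 10% FBS were plated in 1536-well plates, held 24 hours at 37°C, 5% CO2, then given two-drug dose matrices for 72 hours (DMSO typically 0.2%). Viability was read by CellTiter-Glo 2.0 luminescence and scaled as inhibition from 0 (vehicle wells) to 1 (blank wells). Combination Emax is the second-highest inhibition in the matrix; Bliss excess is observed combination effect minus expected EA + EB − EA·EB, EA and EB being single-agent effects.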

[1] = test system: AsPC-1 (Pancreatic Carcinoma)
How it was run: as §1

[2] = test system: Calu-6 (Non-Small Cell Lung Carcinoma)
How it was run: as §1

ES-2 (Ovarian Carcinoma) = test system: ES-2 (Ovarian Carcinoma)
How it was run: as §1

[3] = test system: FLO-1 (Esophageal Adenocarcinoma)
How it was run: as §1

[4] = test system: HSC-3 (Oral Cavity Carcinoma)
How it was run: as §1

[5] = test system: HTC-C3 (Thyroid Gland Carcinoma)
How it was run: as §1

[6] = test system: JHH-1 (Hepatocellular Carcinoma)
How it was run: as §1

[7] = test system: LAMA-84 (Chronic Myelogenous Leukemia)
How it was run: as §1

[8] = test system: LOUCY (T-Lymphoblastic Leukemia)
How it was run: as §1

[9] = test system: NCI-H1755 (Lung Adenocarcinoma)
How it was run: as §1

[10] = test system: NCI-H810 (Non-Small Cell Lung Carcinoma)
How it was run: as §1

[11] = test system: OCI-AML5 (Acute Myeloid Leukemia)
How it was run: as §1

[12] = test system: OV-90 (Ovarian Carcinoma)
How it was run: as §1

[13] = test system: RPMI-8866 (Chronic Myelogenous Leukemia)
How it was run: as §1

RT4 (Bladder Carcinoma) = test system: RT4 (Bladder Carcinoma)
How it was run: as §1

[14] = test system: SJRH30 (Rhabdomyosarcoma)
How it was run: as §1

[15] = test system: SK-MM-2 (Plasma Cell Myeloma)
How it was run: as §1

[16] = test system: SW684 (Other Solid Carcinomas)
How it was run: as §1

[17] = test system: Caov-3 (Ovarian Carcinoma)
How it was run: as §1

Structure (SMILES) | combination Emax (786-0 (Kidney Carcinoma)) | combination Emax [1] | combination Emax [2] | combination Emax (ES-2 (Ovarian Carcinoma)) | combination Emax [3] | combination Emax [4] | combination Emax [5] | combination Emax [6] | combination Emax [7] | combination Emax [8] | combination Emax [9] | combination Emax [10] | combination Emax [11] | combination Emax [12] | combination Emax [13] | combination Emax (RT4 (Bladder Carcinoma)) | combination Emax [14] | combination Emax [15] | combination Emax [16] | combination Emax [17]
COc1nnc2ccc(N3CCC(c4ccc(OCCN5CCN(C)C(=O)[C@H]5C)cc4)CC3)nn12 [AZD5153] + C=CCn1c(=O)c2cnc(Nc3ccc(N4CCN(C)CC4)cc3)nc2n1-c1cccc(C(C)(C)O)n1 [AZD1775] (first compound max 1 µM, partner max 1 µM) | 0.641 | 0.381 | 0.854 | 0.747 | 0.888 | 0.795 | 0.772 | 0.584 | 0.978 | 1 | 0.8 | 0.8 | 0.905 | 0.378 | 0.952 | 0.571 | 0.942 | 0.878 | 0.452 | –
CS(=O)(=O)CCNCc1ccc(-c2ccc3ncnc(Nc4ccc(OCc5cccc(F)c5)c(Cl)c4)c3c2)o1 [Lapatinib] + C[C@@H](Oc1cc(-c2cnn(C3CCNCC3)c2)cnc1N)c1c(Cl)ccc(F)c1Cl [Crizotinib] (first compound max 10 µM, 7x7, partner max 10 µM) | 0.992 | 0.345 | 0.815 | 0.921 | 0.881 | 1 | 0.956 | 0.952 | 1 | 0.822 | 0.957 | 0.412 | 0.988 | 0.578 | 0.884 | 0.916 | 0.955 | 0.43 | 0.523 | –
COc1nnc2ccc(N3CCC(c4ccc(OCCN5CCN(C)C(=O)[C@H]5C)cc4)CC3)nn12 [AZD5153] + CCN(CCO)CCCOc1ccc2c(Nc3cc(CC(=O)Nc4cccc(F)c4)[nH]n3)ncnc2c1 [AZD2811] (first compound max 1 µM, 7x7, partner max 1 µM) | 0.552 | 0.258 | 0.301 | 0.618 | 0.565 | 0.773 | 0.818 | 0.446 | 0.892 | 0.97 | 0.654 | 0.694 | 0.985 | 0.352 | 0.872 | 0.516 | 0.799 | 0.908 | 0.502 | –
Cn1cnc2c(F)c(Nc3ccc(Br)cc3Cl)c(C(=O)NOCCO)cc21 [Selumetinib] + C[C@@H]1COCCN1C2=NC(=NC(=C2)C3(CC3)[S@](=N)(=O)C)C4=C5C=CNC5=NC=C4 [AZD6738] (first compound max 10 µM, 7x7, partner max 10 µM) | 0.606 | 0.435 | 0.817 | 0.714 | 0.635 | 0.545 | 0.75 | 0.436 | 0.992 | 0.966 | 0.738 | 0.414 | 1 | 0.688 | 0.943 | 0.549 | 0.821 | 0.23 | 0.265 | –
C=CCn1c(=O)c2cnc(Nc3ccc(N4CCN(C)CC4)cc3)nc2n1-c1cccc(C(C)(C)O)n1 [AZD1775] + C1CN(CCC1(C(=O)N[C@@H](CCO)C2=CC=C(C=C2)Cl)N)C3=NC=NC4=C3C=CN4 [Capivasertib] (first compound max 3 µM, partner max 3 µM) | 0.817 | 0.505 | 0.8 | 0.817 | 0.921 | 0.773 | 0.642 | 0.691 | 0.939 | 1 | 0.8 | 0.873 | 0.893 | 0.587 | 0.964 | 0.712 | 0.955 | 0.501 | 0.467 | –
C[C@@H](c1ccc2nccn2c1)n1nnc2ncc(-c3cnn(C)c3)nc21 [Savolitinib] + CC1(C)CCC(CN2CCN(c3ccc(C(=O)NS(=O)(=O)c4ccc(NCC5CCOCC5)c([N+](=O)[O-])c4)c(Oc4cnc5[nH]ccc5c4)c3)CC2)=C(c2ccc(Cl)cc2)C1 [Venetoclax] (first compound max 1 µM, 7x7, partner max 1 µM) | 0.159 | 0.107 | 0.194 | 0.137 | 0.2 | 0.107 | 0.127 | 0.114 | 0.172 | 0.976 | 0.101 | 0.194 | 0.883 | 0.133 | 0.0738 | 0.12 | 0.126 | 1 | 0.231 | –
Cc1c2c(nn1C)CSCc1cc(n(C)n1)CSc1cc(c3ccccc3c1)OCCCc1c(C(=O)O)n(C)c3c-2c(Cl)ccc13 [AZD5991] + Cn1cnc2c(F)c(Nc3ccc(Br)cc3Cl)c(C(=O)NOCCO)cc21 [Selumetinib] (first compound max 1 µM, 7x7, partner max 3 µM) | 0.251 | 0.506 | 0.635 | 0.56 | 0.386 | 0.744 | 0.598 | 0.663 | 0.912 | 0.595 | 0.338 | 0.322 | 1 | – | 0.502 | 0.352 | 0.512 | 0.356 | 0.319 | 0.501
